US10828305B2 (SHANGHAI PHARMACEUTICALS HOLDING CO., LTD., priority 2016, dated 2020)

Experiments:
[1] = system: human gastric cancer NCI-N87 xenograft; assay: HER2 overexpressing human gastric cancer NCI-N87 xenograft model in nude mice; type: in vivo, Balb/c nude mice; conditions: oral, 22 days
CYP2C8 = target: T1, CYP2C8 (Homo sapiens, UniProt P10632); assay: Direct inhibition of CYP2C8, human liver microsome; type: in vitro ADME; conditions: probe paclitaxel, read-out: IC50 2C8 (Paclitaxel)
T1 construct: from tissue; host or cells: human liver microsomes
T1 sequence (P10632 1-490): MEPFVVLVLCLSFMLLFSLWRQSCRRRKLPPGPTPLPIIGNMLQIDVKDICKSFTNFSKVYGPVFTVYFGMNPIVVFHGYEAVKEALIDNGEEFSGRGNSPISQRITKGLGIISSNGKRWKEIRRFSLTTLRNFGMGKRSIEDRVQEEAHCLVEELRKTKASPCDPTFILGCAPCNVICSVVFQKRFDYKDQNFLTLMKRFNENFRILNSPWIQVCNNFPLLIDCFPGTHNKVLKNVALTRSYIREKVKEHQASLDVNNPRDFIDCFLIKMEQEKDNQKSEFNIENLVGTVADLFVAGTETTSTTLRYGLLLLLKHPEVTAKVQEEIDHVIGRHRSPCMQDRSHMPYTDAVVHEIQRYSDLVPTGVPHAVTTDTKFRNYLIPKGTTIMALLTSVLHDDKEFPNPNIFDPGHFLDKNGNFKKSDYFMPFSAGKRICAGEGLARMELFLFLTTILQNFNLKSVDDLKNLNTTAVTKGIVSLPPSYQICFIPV
Procedure: (§1) Research on Direct Inhibition of CYP2B6 and CYP2C8
(§2) 100 μL human liver microsome (with final concentration of 0.2 mg/mL) was used for direct inhibition under warm incubation. The positive control system contained NADPH (with final concentration of 1 mmol/L), a mixture of positive inhibitors (ketoconazole 0.05 to 50 μmol/L, montelukast sodium 0.001 to 1 μmol/L), and a substrate mixture (with final concentration of amfepramone 50 μmol/L and paclitaxel 5 μmol/L), and the reaction was terminated after incubation for 20 min. The positive inhibitor was replaced with 0.1 to 100 μmol/L test compound in the test compound group. The reaction was terminated with acetonitrile containing […] internal standard tinidazole (1:3), vortexed for 10 min, centrifuged at 6000×g for 10 min, and 50 μL supernatant was taken and put into a 96-well plate for injection.
(§3) In this experiment, IC50 of inhibition of the compound on the enzyme was calculated by measuring relative production of the probe metabolite. The activity of CYP3A4 was simultaneously characterized by two probes of midazolam and testosterone.

CYP2C9 = target: T2, CYP2C9 (Homo sapiens, UniProt P11712); assay: Direct inhibition of CYP2C9, human liver microsome; type: in vitro ADME; conditions: probe diclofenac, read-out: IC50 2C9 (Diclofenac)
T2 construct: from tissue; host or cells: human liver microsomes
Procedure: Research on Direct Inhibition of CYP3A4, CYP2D6, CYP2C9, CYP2C19, CYP1A2
100 μL human liver microsome (with final concentration of 0.2 mg/mL) was used for direct inhibition under warm incubation, the positive control system contained NADPH (with final concentration of 1 mmol/L), a mixture of positive inhibitors (ketoconazole 0.01 to 10 μmol/L, quinidine 0.01 to 10 μmol/L, sulfaphenazole 0.1 to 100 μmol/L, tranylcypromine 1 to 1000 μmot/L, α-naphthoflavone 0.01 to 10 μmol/L), and a substrate mixture (with final concentration of midazolam 10 μmol/L, testosterone 100 μmol/L, dextromethorphan 10 μmol/L, diclofenac 20 μmol/L, S-mephenytoin 50 μmol/L, phenacetin 100 μmol/L), and the reaction was terminated after incubation for 20 min. The positive inhibitor was replaced with 0.1 to 100 μmol/L test compound in the test compound group. The reaction was terminated with acetonitrile containing 0.11 μg/mL internal standard tinidazole (1:3), vortexed for 10 min, centrifuged at 6000×g for 10 min, 50 μL supernatant was taken and put into a 96-well plate for injection.
as §3

CYP2B6 = target: T3, CYP2B6 (Homo sapiens, UniProt P20813); assay: Direct inhibition of CYP2B6, human liver microsome; type: in vitro ADME; conditions: probe bupropion, read-out: IC50 2B6 (Bupropion)
T3 construct: from tissue; host or cells: human liver microsomes
T3 sequence (P20813 1-491): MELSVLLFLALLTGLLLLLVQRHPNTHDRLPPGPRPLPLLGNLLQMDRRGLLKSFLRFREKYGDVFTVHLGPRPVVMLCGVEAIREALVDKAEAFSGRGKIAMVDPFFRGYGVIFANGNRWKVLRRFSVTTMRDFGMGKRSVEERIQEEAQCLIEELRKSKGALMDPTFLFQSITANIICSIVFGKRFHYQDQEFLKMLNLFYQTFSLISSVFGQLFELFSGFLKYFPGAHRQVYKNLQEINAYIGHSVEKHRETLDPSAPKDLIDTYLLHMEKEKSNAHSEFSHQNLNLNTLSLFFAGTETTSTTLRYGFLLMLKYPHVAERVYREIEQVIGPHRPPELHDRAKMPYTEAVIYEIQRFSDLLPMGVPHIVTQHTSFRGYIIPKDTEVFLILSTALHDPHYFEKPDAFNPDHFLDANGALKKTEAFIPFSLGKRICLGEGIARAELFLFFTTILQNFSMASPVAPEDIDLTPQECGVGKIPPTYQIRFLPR
Procedure: as §1, §2, §3

[2] = In vivo pharmacokinetics study in mice; conditions: male, ICR, mouse, plasma, po, iv 3 mg/kg, intragastric 10 mg/kg, read-out: Absolute bioavailability F
Procedure: In Vivo Pharmacokinetics Study in Rats and Mice
24 male ICR mices, with weight of 18 to 22 g. The mice were fasted for 12 to 16 hours before the experiment, without restricting drinking water. 24 mice were divided into 2 groups, 12 mice for each group. The first group was intravenously administrated with test compound (10 mL/kg, 0.3 mg/mL) at a dose of 3 mg/kg, 0.4 mL blood sample was taken from venous plexus of the fundus of the eye into a pre-heparinized centrifuge tube (sodium heparin solution 10 μL/tube) before administration and 2, 5, 15, 30, 60, 90, 120, 240, 360, 480, 720, 1440 min after administration, respectively. The second group was dosed with compound (20 mL/kg, 0.5 mg/mL) by intragastric administration at a dose of 10 mg/kg, 0.4 mL blood sample was taken from venous plexus of the fundus of the eye into a pre-heparinized centrifuge tube (sodium heparin solution 10 μL/tube) before administration and 5, 15, 30, 60, 90, 120, 240, 360, 480, 720, and 1440 min after administration, respectively. 2 to 3 time points were taken for each mouse. […]
Taking 50 μL plasma sample of rat or mouse, adding […] acetonitrile containing internal standard (propranolol, 2.5 ng/ml) to precipitate protein. Vortexing for 10 min, centrifuging at 6000 g for 10 min, the supernatant was taken and diluted with mobile phase in a 96-well plate, the drug concentration in plasma was measured by UPLC/MS-MS. […]

T2 sequence (P11712 whole entry): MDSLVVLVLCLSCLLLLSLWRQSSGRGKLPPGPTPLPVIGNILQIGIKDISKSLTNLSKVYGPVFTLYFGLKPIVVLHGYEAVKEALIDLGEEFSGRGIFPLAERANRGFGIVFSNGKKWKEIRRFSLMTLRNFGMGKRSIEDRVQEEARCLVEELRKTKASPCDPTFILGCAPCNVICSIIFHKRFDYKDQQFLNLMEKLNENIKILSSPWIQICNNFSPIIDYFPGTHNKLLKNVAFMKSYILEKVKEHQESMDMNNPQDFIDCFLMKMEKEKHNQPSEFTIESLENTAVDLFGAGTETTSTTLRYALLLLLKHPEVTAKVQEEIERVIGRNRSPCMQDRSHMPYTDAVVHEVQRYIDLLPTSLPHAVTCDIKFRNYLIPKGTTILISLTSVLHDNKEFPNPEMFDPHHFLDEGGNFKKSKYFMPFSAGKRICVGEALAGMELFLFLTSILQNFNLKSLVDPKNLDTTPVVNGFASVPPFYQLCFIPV

Row | Structure (SMILES) | tumor volume inhibition rate (GI %) ([1]; 50MPK) [%] | IC50 (CYP2C8) [µM] | IC50 (CYP2C9) [µM] | IC50 (CYP2B6) [µM] | bioavailability [2] [%] | tumor volume inhibition rate (GI %) ([1]; 100MPK) [%]
1 | Cc1cc(Nc2ncnc3ccc(NC4=NC(C)(C)CO4)cc23)ccc1Oc1ccn2ncnc2c1 [ARRY-380, reference compound] | 59.5 | 3 | 13 | > 100 | 61 | –
2 | Cc1cc(Nc2ncnc3ccc(NC4=NC(C)(C)CO4)cc23)ccc1Oc1cc2nncn2cn1 [Embodiment 4, N^4-(4-([1,2,4]triazolo[4,3-c]pyrimidin-7-yloxy)-3-methylphenyl)-N^6-(4,4-dimethyl-4,5-dihydrooxazol-2-yl)quinazoline-4,6-diamine] | 84.3 | 15 | 53 | > 100 | 96.2 | 117.9
